System: Aβ42 production
Assay: Quantification of Aβ peptide (Aβx-42 ELISA) in neuronal culture from rat fetus brain
Assay type: cell-based
Details: primary neuronal culture from cerebral cortices of embryonic day 18 Wistar rat; compound added on day 4 of culture, incubation for 3 days; Aβx-42 in medium by ELISA, % of CTRL; read-out: Effect to Reduce Aβ42 Production IC50
Protocol: Quantification of Aβ Peptide in Neuronal Culture from Rat Fetus Brain (1)
Primary neuronal cultures were prepared from cerebral cortices from embryonic day 18 Wistar rat (Charles River Japan, Yokohama, Japan). The embryos were aseptically removed from a pregnant rat under ether anesthesia. The brain was isolated from the embryo, and immersed in ice-cold L-15 medium (for example, Invitrogen Corp. Cat #11415-064, Carlsbad, Calif., USA, or SIGMA L1518, St. Louis. MO, USA). The cerebral cortex was collected under a stereoscopic microscope from the brain. The cerebral cortex fragments collected were subjected to enzyme treatment in an enzyme solution containing 0.25% trypsin (for example, Invitrogen Corp., Cat #15050-065, Carlsbad, Calif., USA) and 0.01% DNase (for example, Sigma D5025, St. Louis. MO, USA) at 37 C for 30 minutes to allow for cell dispersion. The enzyme reaction was terminated by addition of same volume of heat-inactivated horse serum. After centrifugation at 1500 rpm for 5 minutes, the supernatant was removed and 5-10 ml of medium was added to the cell pellet. Neurobasal Medium™ (Invitrogen Corp., Carlsbad, Calif., USA) supplemented with 2% B-27 supplement (Invitrogen Corp., Carlsbad, Calif., USA), 25 μM 2-mercaptoethanol (2-ME, WAKO, 139-06861, Osaka, Japan), 0.5 mM L-glutamine (for example, Invitrogen Corp., Cat # 25030-081, Carlsbad, Calif., USA), and 1% antibiotics-antimycotics (Invitrogen Corp., Cat # 15240-062, Carlsbad, Calif., USA) was used as the culture medium (Neurobasal/B27/2-ME). At the compound evaluation, the medium of the same composition not to add 2-ME alone (Neurobasal/B27) was used. The cell pellet was triturated by mild pipetting. Remaining cell pellet was removed by filtering through a 40-μm nylon mesh (Cell Strainer, Cat # 35-2340, Becton Dickinson Labware, Franklin Lakes, N.J., USA) and a neuronal cell suspension was obtained. The neuronal cell suspension was diluted with the Neurobasal/B27/2-ME medium and then plated in a volume of 100 μl/well to obtain an initial cell density of 5×10^5 cells/cm^2 in a 96-well polystyrene plate pre-coated with poly-L or D-lysine (for example, Falcon MICROTEST Tissue culture plate 96 well flat bottom with low evaporation lid (Cat # 35-3075, Becton Dickinson Labware, Franklin Lakes, N.J., USA) coated with poly-L-lysine using the method shown below, or BIOCOAT™ cell environments Poly-D-lysine cell ware 96-well plate, Cat # 35-6461, Becton Dickinson Labware, Franklin Lakes, N.J., USA). Poly-L-lysine coating was carried out as follows. Poly-L-lysine (SIGMA P2636, St. Louis, Mo., USA) solution at 100 μg/ml was prepared aseptically with 0.15 M Borate buffer (pH 8.5). The solution was added to a 96-well polystyrene […] at 50-100 μl/well and incubated at room temperature for one hour or more, or at 4 C overnight or longer. This was rinsed 4 or more times with sterile water, and then dried or rinsed with, for example, sterile PBS or medium, and used for plating cells. Cells were cultured for one day in an incubator of 5% CO2-95% air at 37 C, the entire amount of the medium was exchanged with fresh Neurobasal/B27/2-ME, and the cells were then cultured for further 3 days.
Drugs were added on day 4 of culture as follows. The entire amount of the medium was removed from culture well, and Neurobasal/B27 medium was added at 180 μl/well. The test compound dimethyl sulfoxide (hereinafter abbreviated as DMSO) solution was diluted with Neurobasal/B27 so than it would be 10-fold of the desired final concentration. A diluent was added at 20 μl/well and mixed well. The final concentration of DMSO was 1% or less. Only DMSO was added to the control group.
After incubation for 3 days, the entire amount of the medium was collected as ELISA sample. This was used without any dilution for Aβx-42 measurement, and diluted to 5-fold with the diluent supplied with ELISA kit for Aβx-40 measurement, before subjecting to respective ELISA assays. […]

`COc1cc(/C=C2\CCCN(C3CCc4ccccc4C3)C2=O)ccc1-n1cnc(C)c1` (stereo not drawn) [Example 1014, (E)-3-[3-methoxy-4-(4-methyl-1H-imidazol-1-yl)benzylidene]-1-[(2R and 2S)-1,2,3,4-tetrahydronaphthalen-2-yl]piperidin-2-one] was tested, and the IC50 was 60 nM.

`COc1cc(/C=C2\CCCN(C3CCOc4cc(F)ccc43)C2=O)ccc1-n1cnc(C)c1` [Example 1025, (E)-1-[(4R) and (4S)-7-fluorochroman-4-yl]-3-[3-methoxy-4-(4-methyl-1H-imidazol-1-yl)benzylidene]piperidin-2-one] gave an IC50 of 70 nM.

For `COc1cc(/C=C2\CCCN(C3COc4ccccc4C3)C2=O)ccc1-n1cnc(C)c1` (stereo not drawn) [Example 1027, (E)-1-[(3R and 3S)-chroman-3-yl]-3-[3-methoxy-4-(4-methyl-1H-imidazol-1-yl)benzylidene]piperidin-2-one], the IC50 was 71 nM.

Source: patent publication US7687640B2, “Cinnamide compound” (Eisai R&D Management Co., Ltd., priority 2004, dated 2010)
